Here are results for 13 molecules from PubChem BioAssay (NCI).

Test systems include KM12 colon; SK-MEL-28 melanoma; SF-539 CNS; CAKI-1 renal; SK-MEL-2 melanoma; M14 melanoma; OVCAR-5 ovarian; SK-MEL-5 melanoma; U251 CNS; SNB-75 CNS.
Holding throughout (experiment): DTP human tumour cell line panel, 48 h

Several values for one entry are separate records, joined by “and”; a condition that tells them apart may be missing. Equal entries are not always repeated.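 Briefly, cells in 96-well plates were exposed to five compound concentrations for 48 h, and endpoints were estimated by linear interpolation. GI50 marks 50% less growth. TGI: concentration producing complete growth inhibition.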 Where only a bound is given, the exact number is not on record here.

Usually TGI stands for the concentration giving total growth inhibition. A higher TGI goes with lower sensitivity of the cells. Consider `O=C(O)C1Cc2[nH]c3ccccc3c2C2CCCC12` (stereo not drawn), for which the TGI in the assay on KM12 colon, in the assay on SK-MEL-28 melanoma, in the assay on SF-539 CNS, in the assay on CAKI-1 renal, in the assay on SK-MEL-2 melanoma and in the assay on M14 melanoma was greater than 100 µM throughout. The TGI in the assay on OVCAR-5 ovarian, in the assay with SK-MEL-5 melanoma, with U251 CNS and in the assay on SNB-75 CNS was greater than 100 µM each time.
As to `CC(C)OP(=O)(OC(C)C)/C(=N/Nc1ccc([N+](=O)[O-])cc1)NNC(=O)c1ccccc1`, the TGI in the assay with KM12 colon was greater than 100 µM; in the assay on SK-MEL-28 melanoma it was 91.3 µM; in the assay with SF-539 CNS, greater than 100 µM; in the assay on CAKI-1 renal it was greater than 100 µM; in the assay on SK-MEL-2 melanoma, greater than 100 µM; in the assay with M14 melanoma, greater than 100 µM. Moreover, the TGI in the assay on OVCAR-5 ovarian is greater than 100 µM; in the assay on SK-MEL-5 melanoma it was 32 µM; in the assay on U251 CNS, 76.7 µM; in the assay with SNB-75 CNS it was greater than 100 µM.
As to `c1cc2cc(Cc3ccc4[nH]ccc4c3)ccc2[nH]1`, the TGI in the assay on KM12 colon was found to be 30.9 µM; with SK-MEL-28 melanoma it was 96.7 µM; with SF-539 CNS it was 32.9 µM; in the assay on CAKI-1 renal, 33.5 µM; in the assay on SK-MEL-2 melanoma, 44.3 µM; in the assay on M14 melanoma, 37.7 µM. Moreover, the TGI with OVCAR-5 ovarian came out at 39.7 µM; in the assay on SK-MEL-5 melanoma it was 30 µM; with U251 CNS it was 38.5 µM; in the assay with SNB-75 CNS it was 38.6 µM.
Consider `O=C(/C=C/c1ccc(O)c(O)c1)c1ccc(O)cc1O`, for which the TGI in the assay with KM12 colon amounted to 24.3 µM; in the assay on SK-MEL-28 melanoma, 30.5 µM; in the assay with SF-539 CNS it was 25.8 µM; in the assay on CAKI-1 renal it was 28.9 µM; in the assay with SK-MEL-2 melanoma, 33.4 µM; in the assay on M14 melanoma, 34.7 µM. Besides, the concentration for total growth inhibition (TGI) in the assay with OVCAR-5 ovarian turned out to be 32.8 µM; in the assay with SK-MEL-5 melanoma, 26.3 µM; with U251 CNS it was 17.6 µM; with SNB-75 CNS it was 25.2 µM.
`COc1cccc(C2c3cc4c(cc3OC(NNC(N)=O)C2C)OCO4)c1OC` (stereo not drawn): the TGI in the assay on KM12 colon was 62 µM; in the assay with SK-MEL-28 melanoma it was 72.7 µM; in the assay on SF-539 CNS, 37.5 µM; with CAKI-1 renal it was 83.4 µM; in the assay on SK-MEL-2 melanoma it was 52.1 µM; in the assay with M14 melanoma it was 40.6 µM. In addition, the TGI with OVCAR-5 ovarian was greater than 100 µM; in the assay with SK-MEL-5 melanoma, 43.9 µM; in the assay with U251 CNS it was 68.2 µM; with SNB-75 CNS, 59.3 µM.
Consider `Cc1cc(N(CCC#N)CCC#N)ccc1/C=C(\N=[N+]=[N-])C(=O)NC(=O)COc1ccccc1`, for which the TGI in the assay with KM12 colon, in the assay with SK-MEL-28 melanoma, in the assay with SF-539 CNS, with CAKI-1 renal, with SK-MEL-2 melanoma and in the assay on M14 melanoma was greater than 100 µM each time. Further, the TGI in the assay on OVCAR-5 ovarian was greater than 100 µM; in the assay on SK-MEL-5 melanoma, greater than 100 µM; in the assay with U251 CNS, greater than 100 µM; in the assay with SNB-75 CNS, greater than 67.2 µM.
In general, GI50 refers to the concentration giving 50% growth inhibition. Regarding `NCCNc1ccc(NCCN)c2c1C(=O)c1c(O)ccc(O)c1C2=O`, the GI50 was 0.105 µM in the assay on KM12 colon; less than 0.0112 µM in the assay on SF-539 CNS; 0.345 µM in the assay with SK-MEL-2 melanoma; 0.0324 µM in the assay on M14 melanoma; 0.364 µM in the assay with OVCAR-5 ovarian; 0.0709 µM in the assay on SK-MEL-5 melanoma. Also, the values for the GI50 in the assay with U251 CNS and in the assay on SNB-75 CNS were 0.0238 µM and 0.0227 µM, respectively. Moreover, the TGI with KM12 colon was 1.24 µM and 0.731 µM; in the assay on SK-MEL-28 melanoma it was 2.28 µM and 2.15 µM; with SF-539 CNS, 0.932 µM and 0.261 µM; with CAKI-1 renal, 0.879 µM and 0.123 µM; with SK-MEL-2 melanoma, 1.31 µM and 1.33 µM; with M14 melanoma, 1.27 µM and 1.32 µM. The TGI was 1.5 µM and 3.18 µM in the assay with OVCAR-5 ovarian; 1.47 µM and 1.11 µM in the assay with SK-MEL-5 melanoma; 0.845 µM and 0.137 µM in the assay with U251 CNS; 0.206 µM and 0.429 µM with SNB-75 CNS.
`COc1cc2cnc3c4cc(O)ccc4ccc3c2cc1OC`: the TGI in the assay with KM12 colon is greater than 100 µM; with SK-MEL-28 melanoma, greater than 100 µM; in the assay on SF-539 CNS, greater than 100 µM; in the assay with CAKI-1 renal, greater than 100 µM; in the assay with SK-MEL-2 melanoma it was 87.2 µM; in the assay on M14 melanoma, greater than 100 µM. Besides, the TGI in the assay with OVCAR-5 ovarian, in the assay on SK-MEL-5 melanoma, in the assay with U251 CNS and with SNB-75 CNS was greater than 100 µM in each case.
For `COc1ccccc1NC(=O)C(=O)C(c1cnc2ccc([N+](=O)[O-])cc2n1)[N+](=O)[O-]` (stereo not drawn), the TGI with KM12 colon, with SK-MEL-28 melanoma, with SF-539 CNS, in the assay on CAKI-1 renal, in the assay on SK-MEL-2 melanoma and in the assay on M14 melanoma was greater than 100 µM throughout. Also, the TGI in the assay on OVCAR-5 ovarian, with SK-MEL-5 melanoma, with U251 CNS and with SNB-75 CNS was greater than 100 µM in each case.
With `CCOC(OCC)[C@@H]1C[C@@H]2N(O[C@H](OC3CCCC3(c3ccccc3)c3ccccc3)[C@H](OC(C)=O)[C@@]2(CC)Cc2ccc(OC)c(OC)c2)O1` (stereo partly drawn), the TGI with KM12 colon, in the assay on SK-MEL-28 melanoma, with SF-539 CNS, in the assay with CAKI-1 renal, in the assay on SK-MEL-2 melanoma and in the assay on M14 melanoma was greater than 100 µM throughout. The TGI in the assay on OVCAR-5 ovarian, with SK-MEL-5 melanoma, with U251 CNS and in the assay on SNB-75 CNS was greater than 100 µM in each case.
For the molecule `O=C(N/N=C\c1ccc(Cl)cc1)Nc1cccc2ccccc12`, the TGI in the assay with KM12 colon is greater than 23 µM; with SK-MEL-28 melanoma, greater than 100 µM; in the assay on SF-539 CNS it was 35.7 µM; in the assay on CAKI-1 renal, 4.76 µM; in the assay on SK-MEL-2 melanoma, greater than 100 µM; in the assay with M14 melanoma it was greater than 100 µM. The TGI was greater than 100 µM in the assay on OVCAR-5 ovarian, greater than 37.4 µM with SK-MEL-5 melanoma, 10.1 µM with U251 CNS and 5.62 µM in the assay with SNB-75 CNS.
Consider `Cc1ccc2nc(-c3nccn3C)cc(C(=O)NC(C)CN(C)C)c2c1` (stereo not drawn), for which the TGI in the assay with KM12 colon, in the assay with SK-MEL-28 melanoma, in the assay with SF-539 CNS, in the assay on CAKI-1 renal, with SK-MEL-2 melanoma and with M14 melanoma was greater than 100 µM in each case. Besides, the TGI with OVCAR-5 ovarian, in the assay on SK-MEL-5 melanoma, in the assay on U251 CNS and in the assay on SNB-75 CNS was greater than 100 µM each time.
Regarding `CCOC(=O)C12CCC(c3c(C)cccc3C)(O1)C(C(=O)OC)=C2C(=O)OC` (stereo not drawn), the TGI is greater than 10 µM with KM12 colon; greater than 10 µM with SK-MEL-28 melanoma; 4.76 µM with SF-539 CNS; greater than 10 µM with CAKI-1 renal; greater than 10 µM in the assay with SK-MEL-2 melanoma; greater than 9.53 µM in the assay with M14 melanoma. Also, the TGI with OVCAR-5 ovarian is greater than 9.61 µM; in the assay with SK-MEL-5 melanoma, 5.37 µM; with U251 CNS it was greater than 10 µM; in the assay on SNB-75 CNS, 9.85 µM.
